Measured values: patent US20100144733A1, “Compounds, compositions and methods comprising heteroaromatic derivatives” (Institute for OneWorld Health, priority 2008, published 2010)
Where two headings read alike, the source gives them in different places. Each block holds one molecule with its values, some of them ahead of it.

Target: T1, CFTR (Homo sapiens, UniProt P13569)
T1 construct: endogenous in cells; host or cells: T84 human colonic cells (ECACC)
Assay: T84 assay (FLIPR membrane potential dye, forskolin/IBMX-stimulated CFTR channel activity)
Type: cell-based
Experimental: (§1) For example, Human colonic T84 cells can be acquired from the European Collection of Cell Cultures (ECACC) and grown in standard culture conditions as described by the supplier. On the day before assay 25,000 T84 cells per well are plated into standard black walled, clear bottom 384-well assay plates in standard growth medium consisting of DMEM:F12 with 10% FBS and incubated overnight. On the day of the assay the plates are washed using a standard assay buffer (HBSS with 10 mM Hepes) and incubated for 15 minutes in serum free cell culture medium before the addition of a commercially available membrane potential sensitive fluorescent dye (FLIPRRed membrane potential dye, Molecular Devices Corporation). T84 cells are incubated with the FLIPRRed membrane potential dye for 45 minutes in the presence and absence of test compound before being transferred to a commercially available fluorescence imaging plate reader (FLIPR384, Molecular Devices Corporation). Fluorescence levels are monitored continuously every second for 150 seconds; after an initial 10 second baseline, CFTR channel activity is stimulated through the addition of 10 μM forskolin in the presence of 100 μM of the phosphodiesterase inhibitor iso-butyl-methylxanthine (IBMX). Addition of the forskolin leads to the activation of intracellular adenylyl cylase 1, elevating cAMP levels and results in the phosphorylation and opening of CFTR anion channels. CFTR channel opening causes chloride ion efflux and subsequent depolarization of the cells, which is measured by an increase in fluorescence. CFTR inihibitor compounds prevent cell depolarization and the associatred increase in fluorescence.
as §1, with “Human colonic” for “For example, Human colonic”, “T84 cells are acquired from” for “T84 cells can be acquired from”, “(ECACC) and are grown in” for “(ECACC) and grown in”, “10 μM Forskolin in the” for “10 μM forskolin in the”, “fluorescence. CFTR inhibitor compounds prevent” for “fluorescence. CFTR inihibitor compounds prevent”, “and the associated increase in” for “and the associatred increase in”

[1] = thiadiazole-containing compounds (Table 12), read-out: IC50
[2] = imidazole and triazole-containing compounds (Tables 13, 14, 14′), read-out: IC50 (μM) (T84 assay)
[3] = oxadiazole-containing compounds (a series), average of at least 2 runs unless annotated n = 1, read-out: IC50
[4] = isoxazole-containing compounds (Table 10, 10′, 11, 11′), read-out: IC50

T1 sequence (P13569 whole entry): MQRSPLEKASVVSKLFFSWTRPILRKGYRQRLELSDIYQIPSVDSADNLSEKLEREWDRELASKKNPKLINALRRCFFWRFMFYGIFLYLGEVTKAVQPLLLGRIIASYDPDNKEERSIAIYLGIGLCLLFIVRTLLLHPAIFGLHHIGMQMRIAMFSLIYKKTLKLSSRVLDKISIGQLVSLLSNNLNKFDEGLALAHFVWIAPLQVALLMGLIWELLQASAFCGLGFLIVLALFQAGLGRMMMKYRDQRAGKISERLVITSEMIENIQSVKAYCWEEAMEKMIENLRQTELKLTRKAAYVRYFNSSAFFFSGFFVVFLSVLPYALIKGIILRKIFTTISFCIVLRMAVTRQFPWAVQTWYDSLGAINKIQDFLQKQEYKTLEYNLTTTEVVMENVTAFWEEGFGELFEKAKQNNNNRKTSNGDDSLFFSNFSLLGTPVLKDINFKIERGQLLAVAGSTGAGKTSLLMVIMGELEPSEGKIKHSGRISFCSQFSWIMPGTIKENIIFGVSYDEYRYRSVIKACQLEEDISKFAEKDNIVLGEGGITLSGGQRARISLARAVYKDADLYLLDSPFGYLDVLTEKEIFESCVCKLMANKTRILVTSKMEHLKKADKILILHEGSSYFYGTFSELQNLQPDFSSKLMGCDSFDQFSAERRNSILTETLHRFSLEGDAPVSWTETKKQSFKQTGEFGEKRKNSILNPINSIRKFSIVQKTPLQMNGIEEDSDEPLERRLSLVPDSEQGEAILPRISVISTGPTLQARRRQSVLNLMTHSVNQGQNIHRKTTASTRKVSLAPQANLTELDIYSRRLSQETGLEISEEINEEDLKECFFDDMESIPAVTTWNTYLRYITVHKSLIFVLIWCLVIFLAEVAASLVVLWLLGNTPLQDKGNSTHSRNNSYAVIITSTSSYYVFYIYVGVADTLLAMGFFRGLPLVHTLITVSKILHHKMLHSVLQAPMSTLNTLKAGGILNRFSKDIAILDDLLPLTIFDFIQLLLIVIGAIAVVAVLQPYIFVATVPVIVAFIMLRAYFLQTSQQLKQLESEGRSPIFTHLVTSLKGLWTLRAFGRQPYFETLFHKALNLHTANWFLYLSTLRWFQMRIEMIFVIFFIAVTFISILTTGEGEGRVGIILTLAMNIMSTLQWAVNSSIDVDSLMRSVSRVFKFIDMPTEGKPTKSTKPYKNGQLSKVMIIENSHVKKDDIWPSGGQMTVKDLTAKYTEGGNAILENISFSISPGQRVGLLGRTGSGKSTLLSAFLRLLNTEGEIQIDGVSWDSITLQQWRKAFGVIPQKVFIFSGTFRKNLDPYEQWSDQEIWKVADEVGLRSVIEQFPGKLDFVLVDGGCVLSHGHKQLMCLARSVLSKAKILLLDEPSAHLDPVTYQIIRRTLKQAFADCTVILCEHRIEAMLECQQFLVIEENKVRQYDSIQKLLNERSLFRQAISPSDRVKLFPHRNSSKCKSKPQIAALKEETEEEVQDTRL

- IC50 [1]: 17.6 µM
SMILES: Oc1c(Cl)cc(-c2nnc(Cc3ccsc3)s2)cc1Cl [6h, 2,6-dichloro-4-(5-(thiophen-3-ylmethyl)-1,3,4-thiadiazol-2-yl)phenol]

- IC50 [2]: 16.2 µM
SMILES: CN(Cc1cccc(C(F)(F)F)c1)C(=O)c1ncn(-c2cc(Cl)c(O)c(Cl)c2)n1 [6i, 1-(3,5-dichloro-4-hydroxyphenyl)-N-methyl-N-(3-(trifluoromethyl)benzyl)-1H-1,2,4-triazole-3-carboxamide]

- IC50 [3]: 5.22 µM
SMILES: O=C(NCc1ccc(Oc2ccccc2)cc1)c1nc(-c2cc(Cl)c(O)c(Cl)c2)no1 [7a, 3-(3,5-dichloro-4-hydroxyphenyl)-N-(4-phenoxybenzyl)-1,2,4-oxadiazole-5-carboxamide]

- IC50 [4]: 10.6 µM
SMILES: CN(Cc1ccc(C(F)(F)F)cc1)C(=O)c1cc(-c2cc(Cl)c(O)c(Cl)c2)on1 [7g, 5-(3,5-dichloro-4-hydroxyphenyl)-N-methyl-N-(4(trifluoromethyl)benzyl)isoxazole-3-carboxamide]

- IC50 [1]: 23.4 µM
SMILES: Oc1c(Cl)cc(-c2nnc(COc3cccc(C(F)(F)F)c3)s2)cc1Cl [7h, 2,6-dichloro-4(5-((3-(trifluoromethyl)phenoxy)methyl)-1,3,4-thiadiazol-2-yl)phenol]

- IC50 [2]: 15.7 µM
SMILES: CN(Cc1ccc(OC(F)(F)F)cc1)C(=O)c1ncn(-c2cc(Cl)c(O)c(Cl)c2)n1 [7i, 1-(3,5-dichloro-4-hydroxyphenyl)-N-methyl-N-(4(trifluoromethoxy)benzyl)-1H-1,2,4-triazole-3-carboxamide]

- IC50 [4]: 14.6 µM
SMILES: CN(Cc1ccc2c(c1)OCO2)C(=O)c1cc(-c2cc(Cl)c(O)c(Cl)c2)on1 [8g, N-(benzo[d][1,3]dioxol-5-ylmethyl)-5-(3,5-dichloro-4-hydroxyphenyl)-N-methylisoxazole-3-carboxamide]

- IC50 [1]: 8.64 µM
SMILES: CN(CCO)C(=O)COc1c(Cl)cc(-c2nnc(CN3c4ccccc4Sc4ccccc43)s2)cc1Cl [8h, 2-(4-(5-((10H-phenothiazin-10-yl)methyl)-1,3,4-thiadiazol-2-yl)-2,6-dichlorophenoxy)-N-(2-hydroxyethyl)-N-methylacetamide]

- IC50 [2]: 22.4 µM
SMILES: O=C(NCc1cccc(C(F)(F)F)c1)c1ncn(-c2cc(Cl)c(O)c(Cl)c2)n1 [8i, 1-(3,5-dichloro-4-hydroxyphenyl)-N-(3-(trifluoromethyl)benzyl)-1H-1,2,4-triazole-3-carboxamide]

- IC50 [3]: 7.17 µM
SMILES: O=C(NCC(c1ccccc1)c1ccccc1)c1nc(-c2cc(Br)c(O)c(Br)c2)no1 [9a, 3-(3,5-dibromo-4-hydroxyphenyl)-N-(2,2-diphenylethyl)-1,2,4-oxadiazole-5-carboxamide]

- IC50 [1]: 9.69 µM
SMILES: O=C(COc1c(Cl)cc(-c2nnc(CN3c4ccccc4Sc4ccccc43)s2)cc1Cl)N(CCO)CCO [9h, 2-(4-(5-((10H-phenothiazin-10-yl)methyl)-1,3,4-thiadiazol-2-yl)-2,6-dichlorophenoxy)-N,N-bis(2-hydroxyethyl)acetamide]

- IC50 [2]: 17.6 µM
SMILES: CC(NC(=O)c1ncn(-c2cc(Cl)c(O)c(Cl)c2)n1)c1ccc(F)cc1 (centres unmarked) [9i, 1-(3,5-dichloro-4-hydroxyphenyl)-N-(1-(4-fluorophenyl)ethyl)-1H-1,2,4-triazole-3-carboxamide]

- IC50 [1]: 20.8 µM
SMILES: Oc1c(Cl)cc(-c2nnc(Oc3ccc(Oc4ccccc4)cc3)s2)cc1Cl [10h, 2,6-dichloro-4-(5-(4-phenoxyphenoxy)-1,3,4-thiadiazol-2-yl)phenol]

- IC50 [4]: 6.51 µM
SMILES: O=C(c1cc(-c2cc(Cl)c(O)c(Cl)c2)on1)N1CCC(Cc2ccccc2)CC1 [12g, (4-benzylpiperidin-1-yl)(5-(3,5-dichloro-4-hydroxyphenyl)isoxazol-3-yl)methanone]

- IC50 [3]: 8.92 µM
SMILES: O=C(NCCC(c1ccccc1)c1ccccc1)c1nc(-c2cc(Br)c(O)c(Br)c2)no1 [14a, 3-(3,5-dibromo-4-hydroxyphenyl)-N-(3,3-diphenylpropyl)-1,2,4-oxadiazole-5-carboxamide]

- IC50 [3]: 9 µM
SMILES: O=C(NC(c1ccccc1)c1ccccc1)c1nc(-c2cc(Cl)c(O)c(Cl)c2)no1 [15a, N-benzhydryl-3-(3,5-dichloro-4-hydroxyphenyl)-1,2,4-oxadiazole-5-carboxamide]

- IC50 [2]: 15.7 µM
SMILES: CN(C(=O)c1ncn(-c2cc(Cl)c(O)c(Cl)c2)n1)c1ccc(OC(F)(F)F)cc1 [21i]

- IC50 [2]: 18.1 µM
SMILES: CN(Cc1ccc(Cl)cc1)C(=O)c1ncn(-c2cc(Cl)c(O)c(Cl)c2)n1 [22i, N-(4-chlorobenzyl)-1-(3,5-dichloro-4-hydroxyphenyl)-N-methyl-1H-1,2,4-triazole-3-carboxamide]

Further lines, the molecule ahead of its results:

SMILES: O=C(c1nc(-c2cc(Cl)c(O)c(Cl)c2)no1)N1CCN(c2cccc(C(F)(F)F)c2)CC1 [8a, (3-(3,5-dichloro-4-hydroxyphenyl)-1,2,4-oxadiazol-5-yl)(4-(3-(trifluoromethyl)phenyl) 4-(3-(trifluoromethyl)phenyl)piperazin-1-yl)methanone]
- IC50 [3]: 6.88 µM

SMILES: O=C(c1cc(-c2cc(Br)c(O)c(Br)c2)on1)N1CCC(Cc2ccccc2)CC1 [9g, (4-Benzylpiperidin-1-yl)(5-(3,5-dibromo-4-hydroxyphenyl)isoxazol-3-yl)methanone]
- IC50 [4]: 8.96 µM

SMILES: O=C(NCc1ccc2sccc2c1)c1nc(-c2cc(Br)c(O)c(Br)c2)no1 [10a, N-(benzo[b]thiophen-5-ylmethyl)-3-(3,5-dibromo-4-hydroxyphenyl)-1,2,4-oxadiazole-5-carboxamide]
- IC50 [3]: 7.26 µM

SMILES: O=C(c1cc(-c2cc(Br)c(O)c(Br)c2)on1)N1CCN(c2ccc(Cl)c(Cl)c2)CC1 [10g, (5-(3,5-dibromo-4-hydroxyphenyl)isoxazol-3-yl)(4-(3,4-dichlorophenyl)piperazin-1-yl)methanone]
- IC50 [4]: 7.4 µM

SMILES: CN(Cc1cccc(C(F)(F)F)c1)C(=O)c1nc(-c2cc(Br)c(O)c(Br)c2)no1 [11a, 3-(3,5-dibromo-4-hydroxyphenyl)-N-methyl-N-(3-(trifluoromethyl)benzyl)-1,2,4-oxadiazole-5-carboxamide]
- IC50 [3]: 7.74 µM

SMILES: COc1ccccc1N1CCN(C(=O)c2cc(-c3cc(Br)c(O)c(Br)c3)on2)CC1 [11g, (5-(3,5-dibromo-4-hydroxyphenyl)isoxazol-3-yl)(4(2-methoxyphenyl)piperazin-1-yl)methanone]
- IC50 [4]: 14.2 µM

SMILES: O=C(NCc1cccc(OC(F)(F)F)c1)c1nc(-c2cc(Br)c(O)c(Br)c2)no1 [12a, 3-(3,5-dibromo-4-hydroxyphenyl)-N-(3-(trifluoromethoxy)benzyl)-1,2,4-oxadiazole-5-carboxamide]
- IC50 [3]: 7.89 µM

SMILES: O=C(c1nc(-c2cc(Br)c(O)c(Br)c2)no1)N1CCN(c2ccccc2)CC1 [16a, (3-(3,5-dibromo-4-hydroxyphenyl)-1,2,4-oxadiazol-5-yl)(4-phenylpiperazin-1-yl)methanone]
- IC50 [3]: 9.13 µM

SMILES: O=C(c1nc(-c2cc(Br)c(O)c(Br)c2)no1)N1CCC(Cc2ccccc2)CC1 [18a, (4-benzylpiperidin-1-yl)(3-(3,5-dibromo-4-hydroxyphenyl)-1,2,4-oxadiazol-5-yl)methanone]
- IC50 [3]: 12.3 µM

SMILES: O=C(c1nc(-c2cc(Br)c(O)c(Br)c2)no1)N1CCN(c2ccc(Cl)cc2F)CC1 [19a, (4-(4-chloro-2-fluorophenyl)piperazin-1-yl)(3-(3,5-dibromo-4-hydroxyphenyl)-1,2,4-oxadiazol-5-yl)methanone]
- IC50 [3]: 7.1 µM

SMILES: O=C(NCc1cc(C(F)(F)F)cc(C(F)(F)F)c1)c1nc(-c2cc(Br)c(O)c(Br)c2)no1 [20a, N-(3,5-bis(trifluoromethyl)benzyl)-3-(3,5-dibromo-4-hydroxyphenyl)-1,2,4-oxadiazole-5-carboxamide]
- IC50 [3]: 10.5 µM

SMILES: O=C(c1nc(-c2cc(Br)c(O)c(Br)c2)no1)N(Cc1cccc(C(F)(F)F)c1)Cc1cccc(C(F)(F)F)c1 [21a, 3-(3,5-dibromo-4-hydroxyphenyl)-N,N-bis(3-(trifluoromethyl)benzyl)-1,2,4-oxadiazole-5-carboxamide]
- IC50 [3]: 10.9 µM

SMILES: O=C(NCc1ccc(Cl)c(Cl)c1)c1nc(-c2cc(Br)c(O)c(Br)c2)no1 [22a, 3-(3,5-dibromo-4-hydroxyphenyl)-N-(3,4-dichlorobenzyl)-1,2,4-oxadiazole-5-carboxamide]
- IC50 [3]: 11 µM

SMILES: O=C(NCc1cccc(F)c1)c1nc(-c2cc(Br)c(O)c(Br)c2)no1 [23a, 3-(3,5-dibromo-4-hydroxyphenyl)-N-(3-fluorobenzyl)-1,2,4-oxadiazole-5-carboxamide]
- IC50 [3]: 12.7 µM
